Measured values published in PMC10607100, “Anticancer and Antiphytopathogenic Activity of Fluorinated Isatins and Their Water-Soluble Hydrazone Derivatives” (International Journal of Molecular Sciences, 2023).

How the values were obtained:
M-HeLa = assay: MTT cell viability test, M-HeLa; type: cell-based, human; conditions: Homo sapiens, M-HeLa; incubation time 24 h
Description: (§1) Human cell cultures of tumor origin—HeLa (cervical tumor), HuTu 80 (human duodenal adenocarcinoma), ChangLiver (human liver HeLa-like line), and normal cell line WI38, VA 13 subline 2RA is a diploid human cell strain composed of fibroblasts derived from healthy lung tissue provided by The Gamaleya National Center for Epidemiology and Microbiology, as well as the Institute of Cytology of the Russian Academy of Sciences. They were grown in a nutrient medium DMEM (PanEco, Moscow, Russia) and MEM (PanEco, Moscow, Russia), containing fetal bovine serum (10% by volume) (ThermoFisher Scientific, Paisley, UK), Glutamax (2 mM) (Gibco, Scotland, UK), and penicillin-streptomycin (1% by volume) (PanEco, Moscow, Russia). The cultivation was carried out at 37 °C in a humidified CO2 atmosphere (5%).
(§2) Cell viability was determined by the MTT test. Cells were seeded in a 96-well plate in the amount of 1 × 10^4 cells/200 µL of complete nutrient medium and cultured at 37 °C in CO2 (5%). After 24 h of incubation, various concentrations of test compounds in the range of 0.1 to 100 μM were added to the cell cultures, and then the cells were cultured under the same conditions for 24 and 72 h. For each concentration, the experiment was carried out in triplicate.
(§3) All compounds were dissolved in DMSO and then diluted with the medium to the required concentration. […] The DMSO was also added to the control wells in a volume of 1%. After the incubation time, MTT (3-(4,5-dimethylthiazol-2-yl)-2,5-diphenyltetrazolium bromide, 5 mg/mL) was added to each well, and plates were additionally incubated for 2 h (until the characteristic color appeared).
(§4) Using a plate analyzer (Cytation3, BioTech Instruments Inc., Winooski, VT, USA), the optical density was determined at 530 nm.
(§5) The IC50 parameter was calculated using the AAT Bioquest program.
(§6) The selectivity index (SI) is calculated as the ratio between the IC50 for normal cells and the IC50 for cancer cells.

HuTu 80 = assay: MTT cell viability test, HuTu 80; type: cell-based, human; conditions: Homo sapiens, HuTu80; incubation time 24 h
Description: as §1, §2, §3, §4, §5, §6

Chang Liver = assay: MTT cell viability test, Chang liver; type: cell-based; conditions: Homo sapiens, incubation time 24 h
Description: as §1, §2, §3, §4, §5

[1] = tested on: Pectobacterium carotovorum subsp. carotovorum MI; assay: Agar-well diffusion, bactericidal activity; type: cell-based; conditions: Pectobacterium carotovorum; 500 μg/mL; read-out: width of the inhibition zone (mm), P. carotovorum subsp. carotovorum
Excerpt: (§7) Plant pathogenic bacterial strains Micrococcus luteus B-109, Pectobacterium atrosepticum 1043, Pectobacterium carotovorum subsp. carotovorum MI, Pseudomonas fluorescens EL-2.1, and Xanthomonas campestris B-610 and the fungal strain Fusarium oxysporum IBPPM 543 were from the Collection of Rhizosphere Microorganisms, IBPPM RAS (WFCC no. 975, WDCM no. 1021) (CM IBPPM, http://collection.ibppm.ru). The pathogenic fungus Phytophthora cactorum VKM F-985, provided by the All-Russian Collection of Microorganisms (VKM) and deposited at the A.E. Favorsky Irkutsk Institute of Chemistry, SB RAS, was also used as a test organism. Bacteria M. luteus, P. carotovorum subsp. carotovorum, P. atrosepticum, and P. fluorescens were grown in a meat–peptone medium (BP), and X. campestris was grown in the medium with glucose, yeast extract, and calcium carbonate (GYCa). Solid media contained Bacto agar (18 g/L); pH was adjusted to 7.2–7.4. All bacterial cultures were grown at 28 °C. The mycelial cultures of F. oxysporum and P. cactorum were grown on a glucose–peptone–yeast (GPY) nutrient medium at 27 °C. For inoculum preparation, both fungal strains were initially grown on the agar GPY in Petri dishes and then transferred into the seed medium by punching out 5 mm of the agar plate culture with a self-designed cutter.
(§8) The antibacterial and antifungal activities of the compounds were explored using the agar-well diffusion method and the technique of mycelial radial growth inhibition. The method of diffusion in agar (measuring the diameter of growth inhibition zones) was used to determine the bactericidal activity. The 6-mm wells were made in agar medium (GYCa for Xanthomonas campestris or BP for other bacteria). Bacterial suspensions were distributed over the agar surface, and the tested compound’s solution (150 μL) was added to each well. The width of growth inhibition zones around the wells was determined after incubation for 36–40 h.

[2] = tested on: Pectobacterium atrosepticum 1043; assay: Agar-well diffusion, bactericidal activity; type: cell-based; conditions: Pectobacterium atrosepticum, 1043; 500 μg/mL; read-out: width of the inhibition zone (mm), P. atrosepticum
Excerpt: as §7, §8

[3] = tested on: Pseudomonas fluorescens EL-2.1; assay: Agar-well diffusion, bactericidal activity; type: cell-based; conditions: Pseudomonas fluorescens, EL2.1; 500 μg/mL; read-out: width of the inhibition zone (mm), Ps. fluorescens
Excerpt: as §7, §8

Micrococcus luteus B-109 = assay: Agar-well diffusion, bactericidal activity; type: cell-based; conditions: Micrococcus luteus, B109, 500 μg/mL; read-out: width of the inhibition zone (mm), M. luteus
Excerpt: as §7, §8

[4] = tested on: Xanthomonas campestris B-610; assay: Agar-well diffusion, bactericidal activity; type: cell-based; conditions: Xanthomonas campestris, B610, read-out: width of the inhibition zone (mm), X. campestris
Description: Bacteria M. luteus, P. carotovorum subsp. carotovorum, P. atrosepticum, and P. fluorescens were grown in a meat–peptone medium (BP), and X. campestris was grown in the medium with glucose, yeast extract, and calcium carbonate (GYCa). Solid media contained Bacto agar (18 g/L); pH was adjusted to 7.2–7.4. […] For inoculum preparation, both fungal strains were initially grown on the agar GPY in Petri dishes and then transferred into the seed medium by punching out 5 mm of the agar plate culture with a self-designed cutter.
as §8

SMILES | IC50 (M-HeLa) [µM] | melting point [°C] | IC50 (HuTu 80) [µM] | IC50 (Chang Liver) [µM] | zone of inhibition at 500 µg/mL [1] [mm] | zone of inhibition at 500 µg/mL [2] [mm] | zone of inhibition at 500 µg/mL [3] [mm] | zone of inhibition at 500 µg/mL (Micrococcus luteus B-109) [mm] | zone of inhibition at 500 µg/mL [4] [mm]
O=C1C(=O)N(Cc2c(F)c(F)c(F)c(F)c2F)c2ccccc21 [Compound 8d] | > 100 | – | 54.1 ± 3.9 | > 100 | – | – | – | – | –
O=C1C(=O)N(Cc2c(F)c(F)c(F)c(F)c2F)c2ccc(F)cc21 [Compound 3f, 5-Fluoro-1-((perfluorophenyl)methyl)indoline-2,3-dione] | 100 ± 7.4 | 112 to 113 | 92 ± 6.4 | > 100 | – | – | – | – | –
CC(C)(C)c1ccc(CN2C(=O)C(=O)c3cc(F)ccc32)cc1 [Compound 4c, 1-(4-(tert-Butyl)benzyl)-5-fluoroindoline-2,3-dione] | > 100 | 123 to 124 | 43 ± 3 | 92.1 ± 7.4 | – | – | – | – | –
CCn1cc(C(=O)O)c(=O)c2cc(F)c(N3CCNCC3)cc21 [Norfloxacin, norfloxacin, reference compound] | – | – | – | – | 8 | 7 | 8 | 7 | 7

Now from value to compound, other results behind:

IC50 (M-HeLa) [µM] | melting point [°C] | SMILES | IC50 (HuTu 80) [µM] | IC50 (Chang Liver) [µM] | zone of inhibition at 500 µg/mL [1] [mm] | zone of inhibition at 500 µg/mL [2] [mm] | zone of inhibition at 500 µg/mL [3] [mm] | zone of inhibition at 500 µg/mL (Micrococcus luteus B-109) [mm] | zone of inhibition at 500 µg/mL [4] [mm]
58.4 ± 4.1 | 136 to 137 | CC(C)(C)c1cc(CN2C(=O)C(=O)c3cc(F)ccc32)cc(C(C)(C)C)c1 [Compound 4d, 1-(3,5-Di-tert-butylbenzyl)-5-fluoroindoline-2,3-dione] | 33.3 ± 2.3 | 39.4 ± 2.8 | – | – | – | – | –
94 ± 7.5 | 155 to 156 | Cc1ccc2c(c1)C(=O)C(=O)N2Cc1cccc(C(F)(F)F)c1 [Compound 4e, 5-Methyl-1-(3-(trifluoromethyl)benzyl)indoline-2,3-dione] | 53.2 ± 3.9 | > 100 | – | – | – | – | –
98.8 ± 6.9 | – | O=C1C(=O)N(Cc2c(F)cccc2F)c2ccccc21 [Compound 8c] | 50.3 ± 3.6 | 79 ± 5.5 | – | – | – | – | –
65.7 ± 5.9 | 131 to 132 | O=C1C(=O)N(Cc2c(F)cccc2F)c2ccc(F)cc21 [Compound 3c, 1-(2,6-Difluorobenzyl)-5-fluoroindoline-2,3-dione] | 41.2 ± 2.7 | 95.5 ± 8 | – | – | – | – | –
